This note sets out measurements from patent publication US9127040B2, “Regulation of sodium channels by PLUNC proteins” (The University of North Carolina at Chapel Hill, priority 2011, dated 2015).

The target of one experiment is T1, βENaC-eGFP (Homo sapiens, UniProt P51168).
T1 construct: expressed in transfected cells; host or cells: HEK cells
Description: Confocal imaging of βENaC-eGFP internalization in HEK cells. It is filed as cell-based. The conditions noted are these: 1 h after 100 μM S18. An excerpt: Ai, cartoon of αENaC-eGFP and βENaC-mCherry under basal conditions (γENaC not shown). Aii We hypothesize that S18 binding to the extracellular loop of βENaC (1) induces a conformational change in ENaC which is reflected as altered intracellular FRET (2). This change may facilitate NEDD4-2-induced ubiquitination (3), leading to internalization of αβγENaC (4). […] In contrast, exposure to aprotinin had no effect. All n=8-10. C, Typical confocal images of HEK cells expressing αγENaC and βENaC-eGFP before and 1 h after 100 μM S18. Cell outlines are traced in white.
Since ENaC is regulated by NEDD4-2 binding to its C-termini, which leads to ubiquitination of its N-termini and internalization, we propose that S18 causes a conformational change in ENaC, leading to increased ubiquitination followed by internalization (FIG. 21A). As a first step towards understanding the mechanism of action of SPLUNC1, we performed FRET on fluorescently tagged ENaCs. […] Furthermore, βENaC-eGFP internalized upon S18 binding (FIG. 21C), consistent with our surface biotinylation data from oocytes.

For a further experiment, the system named is serine proteases. Description: Endogenous protease activity (BGAR-MCA cleavage) on mucosal surface of human bronchial epithelial cultures. It is filed as cell-based. The procedure:
For cell-free assays, reactions were carried out in 50 μl Ringer in a 96 well plate format with 100 μM BGAR-MCA. To measure endogenous protease activity in human bronchial epithelial cultures, 30 μl Ringer with 100 μM BGAR-MCA were placed directly onto the mucosal surfaces of human bronchial epithelial cultures grown on 12 mm T-clear inserts and the cultures were assayed in 12 well plates.

Ends that are not written are not given here.

T1 sequence (P51168 whole entry): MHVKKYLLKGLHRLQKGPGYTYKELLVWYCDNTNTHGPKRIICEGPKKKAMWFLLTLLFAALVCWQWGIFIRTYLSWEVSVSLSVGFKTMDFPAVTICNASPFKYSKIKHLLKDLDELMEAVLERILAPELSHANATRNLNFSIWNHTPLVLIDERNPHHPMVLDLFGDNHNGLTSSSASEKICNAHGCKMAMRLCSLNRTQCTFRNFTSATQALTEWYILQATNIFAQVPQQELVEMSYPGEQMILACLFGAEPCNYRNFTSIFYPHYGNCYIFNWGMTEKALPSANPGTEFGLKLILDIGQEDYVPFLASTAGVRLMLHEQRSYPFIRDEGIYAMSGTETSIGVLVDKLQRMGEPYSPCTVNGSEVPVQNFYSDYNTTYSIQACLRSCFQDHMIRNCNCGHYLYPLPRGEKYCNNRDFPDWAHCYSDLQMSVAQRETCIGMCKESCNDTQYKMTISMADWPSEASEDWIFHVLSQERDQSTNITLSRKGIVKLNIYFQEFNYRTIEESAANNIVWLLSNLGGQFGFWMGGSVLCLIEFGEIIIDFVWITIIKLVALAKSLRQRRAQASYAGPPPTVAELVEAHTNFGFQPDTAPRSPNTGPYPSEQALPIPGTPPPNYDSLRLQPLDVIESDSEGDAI
T1 sequence (P37088 whole entry partner): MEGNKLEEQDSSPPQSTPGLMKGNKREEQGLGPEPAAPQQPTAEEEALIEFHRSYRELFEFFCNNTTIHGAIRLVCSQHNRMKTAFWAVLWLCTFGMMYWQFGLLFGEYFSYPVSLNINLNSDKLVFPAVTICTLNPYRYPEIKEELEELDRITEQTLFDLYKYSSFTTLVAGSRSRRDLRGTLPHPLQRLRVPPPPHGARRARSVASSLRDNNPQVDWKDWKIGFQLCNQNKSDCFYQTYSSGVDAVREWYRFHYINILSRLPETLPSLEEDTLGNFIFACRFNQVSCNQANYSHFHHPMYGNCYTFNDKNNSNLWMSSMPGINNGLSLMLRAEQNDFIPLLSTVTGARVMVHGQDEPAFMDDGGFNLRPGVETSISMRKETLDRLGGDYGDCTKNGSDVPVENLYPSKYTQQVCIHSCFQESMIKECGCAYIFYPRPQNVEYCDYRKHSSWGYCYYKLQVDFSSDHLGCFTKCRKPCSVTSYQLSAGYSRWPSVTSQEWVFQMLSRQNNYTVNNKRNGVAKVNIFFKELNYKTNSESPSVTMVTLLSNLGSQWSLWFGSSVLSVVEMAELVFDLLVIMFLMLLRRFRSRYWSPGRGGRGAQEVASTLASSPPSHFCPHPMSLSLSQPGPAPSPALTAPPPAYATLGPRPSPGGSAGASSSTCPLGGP
T1 sequence (P51170 whole entry partner): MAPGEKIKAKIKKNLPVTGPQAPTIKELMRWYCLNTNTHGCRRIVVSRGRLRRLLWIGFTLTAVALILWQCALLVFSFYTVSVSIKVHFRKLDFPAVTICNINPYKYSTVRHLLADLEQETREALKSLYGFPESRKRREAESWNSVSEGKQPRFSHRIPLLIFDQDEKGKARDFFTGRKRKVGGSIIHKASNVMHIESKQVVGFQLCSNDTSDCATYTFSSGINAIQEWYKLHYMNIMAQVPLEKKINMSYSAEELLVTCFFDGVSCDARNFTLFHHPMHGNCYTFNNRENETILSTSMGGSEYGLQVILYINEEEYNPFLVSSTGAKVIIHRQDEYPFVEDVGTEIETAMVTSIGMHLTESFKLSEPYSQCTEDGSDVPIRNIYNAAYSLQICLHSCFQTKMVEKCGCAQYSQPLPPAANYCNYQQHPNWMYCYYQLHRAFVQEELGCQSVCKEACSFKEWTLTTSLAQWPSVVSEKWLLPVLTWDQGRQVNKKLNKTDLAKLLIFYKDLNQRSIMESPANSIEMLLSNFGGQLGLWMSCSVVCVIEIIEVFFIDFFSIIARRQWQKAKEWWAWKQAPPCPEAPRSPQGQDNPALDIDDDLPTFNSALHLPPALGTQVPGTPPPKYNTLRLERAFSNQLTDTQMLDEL

As to GGLPVPLDQTLPLNVNPA [S18], the βENaC-eGFP internalization result at βENaC-eGFP was “internalized”.

B1: SPLUNC1: human SPLUNC1 (SEQ ID NO:1), 256 amino acid secreted PLUNC family protein; rSPLUNC1 is the purified V5/6His-tagged recombinant form (protein, listed as Homo sapiens)
chain: MFQTGGLIVFYGLLAQTMAQFGGLPVPLDQTLPLNVNPALPLSPTGLAGSLTNALSNGLLSGGLLGILENLPLLDILKPGGGTSGGLLGGLLGKVTSVIPGLNNIIDIKVTDPQLLELGLVQSPDGHRLYVTIPLGIKLQVNTPLVGASLLRLAVKLDITAEILAVRDKQERIHLVLGDCTHSPGSLQISLLDGLGPLPIQGLLDSLTGILNKVLPELVQGNVCPLVNEVLRGLDITLVHDIVNMLIHGLQFVIKV
modifications: V5/6His tag in recombinant form
notes: rSPLUNC1 is the purified V5/6His-tagged recombinant form
B1: in the experiment with serine proteases, the “BGAR-MCA cleavage on human bronchial epithelial mucosal surfaces” value was “no significant affect”.
